Laboratory results reported in patent publication US20110152092A1, “Herbicidal compositions comprising flufenacet” (Bayer CropScience AG, priority 2009, published 2011).

What was measured:
[1] = test system: MATCH; test: Greenhouse trial, activity with different soil types; assay type: in vivo, Matricaria chamomilla; conditions: IU/EC73 soil; g of AS/ha: (A) 120, (B) 1200, (C) 90, mixture 120 + 1200 + 90
Protocol: (§1) In the standard design of the test, seeds of various broad-leaved weed and weed grass biotypes (origins) were sown in a 8-13 cm diameter pot filled with natural soil of a standard field soil (loamy silt; non-sterile) and covered with a covering soil layer of about 1 cm. The pots were then cultivated in a greenhouse (12-16 h of light, temperature day 20-22° C., night 15-18° C.) until the time of application. The pots were treated on a laboratory track sprayer with spray liquors comprising the compositions according to the invention, mixtures of the prior art or components used individually. Application of the active compounds or active compound combinations formulated as WG, WP, EC or otherwise was carried out at the appropriate growth stages of the plants. The application rate for the spray application was 100-600 l of water/ha. After the treatment, the plants were returned to the greenhouses.
(§2) About 3 weeks after the application, the soil action or/and foliar action was assessed visually according to a scale of 0-100% in comparison to an untreated comparative group: 0%=no noticeable effect compared to the untreated comparative group; 100%=full effect compared to the untreated comparative group.
(§3) (notes: the term “seeds” also includes vegetative propagation forms such as, for example, rhizome pieces; abbreviations used: h light=hours of illumination, g of AS/ha=gram of active substance per hectare, l/ha=liter per hectare, S=sensitive, R=resistant) • 1. Pre-emergence action against weeds: seeds of various broad-leaved weed and weed grass biotypes (origins) were sown in a 8-13 cm diameter pot filled with natural soil of a standard field soil (loamy silt; non-sterile) and covered with a covering soil layer of about 1 cm. The pots were then cultivated in a greenhouse (12-16 h of light, temperature day 20-22° C., night 15-18° C.) until the time of application. The pots were treated at the BBCH stage 00-10 of the seeds/plants on a laboratory track sprayer with spray liquors comprising the compositions according to the invention, mixtures or components used individually, as WG, WP, EC or other formulations. The application rate for the spray application was 100-600 l of water/ha. After the treatment, the plants were returned to the greenhouses and, when required, treated with fertilizer and watered. • 2. Post-emergence action against weeds: seeds of various broad-leaved weed and weed grass biotypes (origins) were sown in a 8-13 cm diameter pot filled with natural soil of a standard field soil (loamy silt; non-sterile) and covered with a covering soil layer of about 1 cm. The pots were then cultivated in a greenhouse (12-16 h of light, temperature day 20-22° C., night 15-18° C.) until the time of application. The pots were treated at various BBCH stages between 11-25 of the seeds/plants, i.e. generally between two to three weeks after the start of the cultivation, on a laboratory track sprayer with spray liquors comprising the compositions according to the invention, mixtures or components used individually, as WG, WP, EC or other formulations. The application rate for the spray application was 100-600 l of water/ha. After the treatment, the plants were returned to the greenhouses and, when required, treated with fertilizer and watered. • 3. […]

[2] = test system: STEME; test: Greenhouse trial, PO application, post-emergence action against weeds (test method 2); assay type: in vivo, Stellaria media; conditions: g of AS/ha: (A) 120, (B) 1200, (C) 120, mixture 120 + 1200 + 120
Protocol: as §1
(§4) About 3 weeks after the application, the soil action or/and foliar action was assessed visually according to a scale of 0-100% in comparison to an untreated comparative group: 0%=no noticeable effect compared to the untreated comparative group; 100%=full effect compared to the untreated comparative group. […]

[3] = test system: LOLPE; test: as above; assay type: in vivo, Lolium perenne; conditions: g of AS/ha: (A) 120, (B) 1200, (C) 120, mixture 120 + 1200 + 120
Protocol: as §1, §4

[4] = test system: APESV; test: Greenhouse trial, PE application at different sowing depths (test method 9); assay type: in vivo, Apera Spica-venti; conditions: g of AS/ha: (A) 120, (B) 1200, (C) 90, mixture 90 + 1200 + 90
Protocol: as §1, §2
(§5) (notes: the term “seeds” also includes vegetative propagation forms such as, for example, rhizome pieces; abbreviations used: h light=hours of illumination, g of AS/ha=gram of active substance per hectare, l/ha=liter per hectare, S=sensitive, R=resistant) • 1. Pre-emergence action against weeds: seeds of various broad-leaved weed and weed grass biotypes (origins) were sown in a 8-13 cm diameter pot filled with natural soil of a standard field soil (loamy silt; non-sterile) and covered with a covering soil layer of about 1 cm. The pots were then cultivated in a greenhouse (12-16 h of light, temperature day 20-22° C., night 15-18° C.) until the time of application. […]

[5] = test system: HORVS; test: Greenhouse trial, PE application, selective pre-emergence action on crop (test method 3); assay type: in vivo, Hordeum vulgare, summer barley; conditions: g of AS/ha: (A) 90, (B) 1200, (C) 90, mixture 90 + 1200
Protocol: as §1, §4

[6] = test system: HORVS; test: Greenhouse trial, activity with different soil types; assay type: in vivo, Hordeum vulgare, summer barley; conditions: g of AS/ha: (A) 120, (B) 1200, (C) 90, mixture 120 + 1200 + 90
Protocol: as §1, §2, §3

[7] = test system: HORVS; test: Greenhouse trial, pre-sowing application 7 days prior to sowing (test method 5); assay type: in vivo, Hordeum vulgare, summer barley; conditions: g of AS/ha: (A) 90, (B) 1200, (C) 90, mixture 90 + 1200
Protocol: as §1, §4

[8] = test system: MATCH; test: Greenhouse trial, PE application with different irrigation variations (test method 6); assay type: in vivo, Matricaria chamomilla; conditions: g of AS/ha: (A) 120, (B) 1200, (C) 90, mixture 120 + 1200 + 90
Protocol: as §1, §2, §5

[9] = test system: AVEFA; test: Greenhouse trial, PE application, pre-emergence action against weeds (test method 1); assay type: in vivo, Avena fatua; conditions: g of AS/ha: (A) 90, (B) 1200, (C) 90, mixture 90 + 1200
Protocol: as §1, §4

[10] = test system: TRZAW; test: Greenhouse trial, PE application at different sowing depths (test method 9); assay type: in vivo, Triticum aestivum, winter wheat; conditions: g of AS/ha: (A) 120, (B) 1200, (C) 90, mixture 90 + 1200 + 90
Protocol: as §1, §2
(notes: the term “seeds” also includes vegetative propagation forms such as, for example, rhizome pieces; abbreviations used: h light=hours of illumination, g of AS/ha=gram of active substance per hectare, l/ha=liter per hectare, S=sensitive, R=resistant) • 1. Pre-emergence action against weeds: seeds of various broad-leaved weed and weed grass biotypes (origins) were sown in a 8-13 cm diameter pot filled with natural soil of a standard field soil (loamy silt; non-sterile) and covered with a covering soil layer of about 1 cm. The pots were then cultivated in a greenhouse (12-16 h of light, temperature day 20-22° C., night 15-18° C.) until the time of application. The pots were treated at the BBCH stage 00-10 of the seeds/plants on a laboratory track sprayer with spray liquors comprising the compositions according to the invention, mixtures or components used individually, as WG, WP, EC or other formulations. The application rate for the spray application was 100-600 l of water/ha. After the treatment, the plants were returned to the greenhouses and, when required, treated with fertilizer and watered. • 2. Post-emergence action against weeds: seeds of various broad-leaved weed and weed grass biotypes (origins) were sown in a 8-13 cm diameter pot filled with natural soil of a standard field soil (loamy silt; non-sterile) and covered with a covering soil layer of about 1 cm. The pots were then cultivated in a greenhouse (12-16 h of light, temperature day 20-22° C., night 15-18° C.) until the time of application. […]

[11] = test system: AVEFA; test: Greenhouse trial, PE application with different irrigation variations (test method 6); assay type: in vivo, Avena fatua; conditions: g of AS/ha: (A) 120, (B) 1200, (C) 90, mixture 120 + 1200 + 90
Protocol: as §1, §4

CCC(CC)Nc1c([N+](=O)[O-])cc(C)c(C)c1[N+](=O)[O-] [(B) pendimethalin, N-(1-ethylpropyl)-3,4-dimethyl-2,6-dinitrobenzenamine]
activity MATCH IU/EC73 soil (visual, scale 0-100%) [1]: 0% | activity STEME (visual, scale 0-100%) [2]: 30% | activity LOLPE (visual, scale 0-100%) [3]: 0% | activity APESV 5 mm (visual, scale 0-100%) ([4]; sowing depth 5 mm): 0% | activity APESV 20 mm (visual, scale 0-100%) ([4]; sowing depth 20 mm): 0% | activity on crop plant HORVS (visual, scale 0-100%) [5]: 50% | activity on crop plant HORVS IU soil (visual, scale 0-100%) ([6]; IU soil): 20% | Difference (of the soil types), HORVS ([6]; IU/EC73 soil versus IU soil): −20% | activity on crop plant HORVS IU/EC73 soil (visual, scale 0-100%) ([6]; IU/EC73 soil): 0% | activity on crop plant HORVS (visual, scale 0-100%) [7]: 30% | activity MATCH (visual, scale 0-100%) ([8]; irrigation from above): 30% | activity MATCH (visual, scale 0-100%) ([8]; irrigation from below): 18% | activity AVEFA (visual, scale 0-100%) [9]: 40% | activity on crop plant TRZAW 5 mm (visual, scale 0-100%) ([10]; sowing depth 5 mm): 45% | activity on crop plant TRZAW 20 mm (visual, scale 0-100%) ([10]; sowing depth 20 mm): 10% | activity AVEFA (visual, scale 0-100%) ([11]; irrigation from above): 80% | activity AVEFA (visual, scale 0-100%) ([11]; irrigation from below): 40%
